Data taken from the NIST ThermoML archive (doi:10.1021/je3008974).

Details: Liquid

F/C=C/C(F)(F)F [trans-1,3,3,3-tetrafluoropropene]
Details | mass density [kg/m3]
285.5 K, 1018.5 kPa, isochoric method | 1205.5
286.92 K, 2021.5 kPa, isochoric method | 1205.4
288.32 K, 3010.5 kPa, isochoric method | 1205.3
289.41 K, 3779.9 kPa, isochoric method | 1205.2
291.42 K, 20124 kPa, isochoric method | 1254.7
291.45 K, 5221.8 kPa, isochoric method | 1205
298.03 K, 1062.5 kPa, isochoric method | 1165.6
298.14 K, 9928.4 kPa, isochoric method | 1204.5
298.15 K, 2000 kPa, Pycnometric method | 1170.52
299.62 K, 2045.7 kPa, isochoric method | 1165.5
301.21 K, 3025.5 kPa, isochoric method | 1165.3
302.81 K, 4026.8 kPa, isochoric method | 1165.2
304.38 K, 4991.3 kPa, isochoric method | 1165.1
305.08 K, 14792 kPa, isochoric method | 1203.9
312.4 K, 1349.3 kPa, isochoric method | 1117.7
312.58 K, 10069 kPa, isochoric method | 1164.5
312.58 K, 19938 kPa, isochoric method | 1203.3
313.7 K, 2032.5 kPa, isochoric method | 1117.6
315.61 K, 3038.9 kPa, isochoric method | 1117.5
317.51 K, 4033.2 kPa, isochoric method | 1117.4
319.6 K, 5142.9 kPa, isochoric method | 1117.2
319.8 K, 24935 kPa, isochoric method | 1202.7
320.41 K, 14882 kPa, isochoric method | 1163.9
327 K, 29927 kPa, isochoric method | 1202.2
328.71 K, 2042.5 kPa, isochoric method | 1060.1
328.71 K, 9986.8 kPa, isochoric method | 1116.5
328.72 K, 19949 kPa, isochoric method | 1163.2
330.83 K, 2963.3 kPa, isochoric method | 1060
333.13 K, 3964.2 kPa, isochoric method | 1059.8
334.34 K, 34952 kPa, isochoric method | 1201.6
335.43 K, 4968.4 kPa, isochoric method | 1059.7
336.83 K, 24924 kPa, isochoric method | 1162.6
337.81 K, 14797 kPa, isochoric method | 1115.9
341.91 K, 40043 kPa, isochoric method | 1201
345.09 K, 29935 kPa, isochoric method | 1162
346.84 K, 9943.4 kPa, isochoric method | 1058.9
347.53 K, 19908 kPa, isochoric method | 1115.2
353.15 K, 12717 kPa, isochoric method | 1058.5
353.15 K, 22854 kPa, isochoric method | 1114.8
353.15 K, 34806 kPa, isochoric method | 1161.4

FC(F)(F)I [trifluoroiodomethane]
Details | mass density [kg/m3]
207.79 K, 10925 kPa, isochoric method | 2455.5
210.4 K, 14322 kPa, isochoric method | 2455
214.87 K, 20130 kPa, isochoric method | 2454.2
214.92 K, 1055.7 kPa, isochoric method | 2401.1
215.96 K, 2305 kPa, isochoric method | 2400.9
216.71 K, 3175.5 kPa, isochoric method | 2400.7
217.73 K, 4381.5 kPa, isochoric method | 2400.5
218.37 K, 5116.4 kPa, isochoric method | 2400.4
218.48 K, 25008 kPa, isochoric method | 2453.5
222.4 K, 29924 kPa, isochoric method | 2452.8
222.62 K, 10052 kPa, isochoric method | 2399.6
226.21 K, 34684 kPa, isochoric method | 2452.1
226.99 K, 15121 kPa, isochoric method | 2398.8
229.95 K, 39202 kPa, isochoric method | 2451.5
231.25 K, 20002 kPa, isochoric method | 2398.1
231.74 K, 1109.5 kPa, isochoric method | 2334.8
233.57 K, 2990.1 kPa, isochoric method | 2334.5
234.66 K, 4114 kPa, isochoric method | 2334.3
235.46 K, 4930.4 kPa, isochoric method | 2334.1
235.5 K, 24985 kPa, isochoric method | 2397.3
239.91 K, 29944 kPa, isochoric method | 2396.6
240.52 K, 10116 kPa, isochoric method | 2333.3
244.17 K, 34707 kPa, isochoric method | 2395.8
245.45 K, 15114 kPa, isochoric method | 2332.4
248.78 K, 39783 kPa, isochoric method | 2395.1
250.46 K, 20143 kPa, isochoric method | 2331.6
251.97 K, 1975.5 kPa, isochoric method | 2256.4
253.21 K, 3063.1 kPa, isochoric method | 2256.2
254.16 K, 3884.4 kPa, isochoric method | 2256
255.27 K, 4873.4 kPa, isochoric method | 2255.8
255.32 K, 25028 kPa, isochoric method | 2330.8
260.19 K, 29834 kPa, isochoric method | 2330
261.5 K, 10373 kPa, isochoric method | 2254.8
265.13 K, 34684 kPa, isochoric method | 2329.2
266.41 K, 776 kPa, isochoric method | 2188.5
266.75 K, 1052.9 kPa, isochoric method | 2188.4
267.06 K, 15109 kPa, isochoric method | 2253.2
267.97 K, 1992.8 kPa, isochoric method | 2188.2
269.24 K, 2976.2 kPa, isochoric method | 2188
270.53 K, 3984.6 kPa, isochoric method | 2187.8
270.93 K, 40330 kPa, isochoric method | 2328.3
272.12 K, 5216.5 kPa, isochoric method | 2187.6
272.85 K, 20116 kPa, isochoric method | 2252.3
278.48 K, 25009 kPa, isochoric method | 2252.2
278.49 K, 10098 kPa, isochoric method | 2186.6
278.5 K, 24979 kPa, isochoric method | 2251.5
284.17 K, 29780 kPa, isochoric method | 2250.6
284.36 K, 940.5 kPa, isochoric method | 2105.8
285.08 K, 15134 kPa, isochoric method | 2185.7
285.92 K, 1976.8 kPa, isochoric method | 2105.6
287.34 K, 2905.5 kPa, isochoric method | 2105.4
288.88 K, 3930.3 kPa, isochoric method | 2105.2
290.4 K, 34997 kPa, isochoric method | 2249.7
290.43 K, 4950.8 kPa, isochoric method | 2104.9
291.69 K, 20129 kPa, isochoric method | 2184.7
296.15 K, 39750 kPa, isochoric method | 2248.8
297.94 K, 861.4 kPa, isochoric method | 2038.1
298.14 K, 10026 kPa, isochoric method | 2103.9
298.15 K, 2000 kPa, Pycnometric method | 2046.84
298.15 K, 25035 kPa, isochoric method | 2183.8
300.01 K, 2068.2 kPa, isochoric method | 2037.9
301.75 K, 3070.1 kPa, isochoric method | 2037.6
303.44 K, 4061.6 kPa, isochoric method | 2037.4
304.54 K, 29729 kPa, isochoric method | 2182.8
305.17 K, 5069.5 kPa, isochoric method | 2037.2
305.56 K, 14805 kPa, isochoric method | 2102.8
311.69 K, 35046 kPa, isochoric method | 2181.8
313.22 K, 982.5 kPa, isochoric method | 1957.5
313.53 K, 19969 kPa, isochoric method | 2101.8
313.58 K, 9932.8 kPa, isochoric method | 2036.1
315.12 K, 1958.3 kPa, isochoric method | 1957.3
317.18 K, 2990.2 kPa, isochoric method | 1957
318.54 K, 40060 kPa, isochoric method | 2180.9
319.17 K, 3976.2 kPa, isochoric method | 1956.8
321.22 K, 5005.2 kPa, isochoric method | 1956.5
321.68 K, 25300 kPa, isochoric method | 2100.7
322.38 K, 14998 kPa, isochoric method | 2034.9
328.99 K, 1994.4 kPa, isochoric method | 1875.8
329.49 K, 30240 kPa, isochoric method | 2099.6
331.3 K, 2985.8 kPa, isochoric method | 1875.6
331.3 K, 10058 kPa, isochoric method | 1955.3
331.31 K, 20061 kPa, isochoric method | 2033.8
333.64 K, 3972.3 kPa, isochoric method | 1875.3
336 K, 4985.7 kPa, isochoric method | 1875
337.32 K, 35169 kPa, isochoric method | 2098.6
340.45 K, 25264 kPa, isochoric method | 2032.6
341.64 K, 15161 kPa, isochoric method | 1954
343.84 K, 39291 kPa, isochoric method | 2097.7
353.14 K, 20828 kPa, isochoric method | 1952.6
353.15 K, 12322 kPa, isochoric method | 1873
353.15 K, 32431 kPa, isochoric method | 2031
